Test results as given in patent publication US6605639B1, “Ligands of nuclear receptor” (Nuclear Receptor Research, Ltd., priority 1998, dated 2003).

Experiments:
[1] = system: cholesterol-7α hydroxylase; assay: Formation of 7α-hydroxycholesterol in hepatic microsome of treated rats; type: in vivo, rat; details: for 7-α-Hydorxycholesterol / 7-α-Hydorxycholesterol (conversion rate): 7 times, 1% cholesterol feed, average of 5 rats
Procedure: To examine the function mechanism of the compounds of the present invention for promoting bile acid excretion, an experiment was carried out to study the effect on a nuclear receptor LXR. It is assumed that LXR, which is a special nuclear receptor in the liver, might be a cholesterol sensor acting with 22-hydroxycholesterol as a ligand (Bethany A. Janowski at al., Nature 383:728-731, 1996). When cholesterol is accumulated in excess in a respective organ, LXR binds to the ligand, forms a heterodimer with RXR, and then binds to the hormone response element. This binding serves as a signal for promoting the oxidation of cholesterol into bile acid to be excreted from the body, thereby reducing deposited cholesterol. Accordingly, the liver is the organ which accumulates cholesterol in the largest amount and, at the same time, releases cholesterol as bile acid in the largest amount. It is estimated that the ability of the compounds of the present invention to promote the excretion of bile acid into feces would be established as follows. In the liver, RXR and LXR bind to the corresponding ligands, subsequently form a heterodimer with each other, and thus promote the expression of colesterol-7α-hydroxylase which is the rate-limiting enzyme in the biosynthesis pathway of bile acid. That is to say, it is estimated that the compounds of the present invention, ligands of RXR, would promote the transcription of the gene of colesterol-7α-hydroxylase (i.e., the enzyme of the rate state in the bile acid biosynthesis in the liver) and thus enhance the expression of colesterol-7α-hydroxylase. […] Accordingly, it can be concluded that the difference between the effects of clofibrate and the compounds of the present invention on cholesterol metabolism resides in that the former is a ligand of PPARα which is not capable of forming a heterodimer with LXR while the latter enhance the transcription of cholesterol oxidase gene RXR ligand-dependently and thus promote the excretion as bile acid from the body. These findings can be regarded as one major aspect of the present invention.
The experiment was carried out as follows. For each compound, 10 male Sprague Dawley rats weighing about 200 g were divided into 2 groups at random and fed for a week with a powdery rat feed (CE-2; Nippon Crea Co., Ltd.) containing 1% of cholesterol and drinking water ad libitum. The compounds of the present invention were suspended in a 2% acacia solution and orally administered by force once a day 7 times continuously in a dose of 5 mg/kg (Compound-1 and Compound-26) or 20 mg/kg (Compound-6 and Compound-14). In the early morning of the day 8, each animal was killed by blood loss. After refluxing with physiological saline, the liver was taken out immediately. Then 4 times as much 250 mM sucrose solution (containing 75 mM of nicotinamide, 1 mM of EDTA and 0.5 mM of MgCl2) was added to the liver and the mixture was ground with the use of a Teflon homogenizer. Then the liquid ground matter was centrifuged at 9500G for 15 minutes at 4° C. and the mitochondria-free supernatant thus obtained was further centrifuged at 105000G for 60 minutes to thereby separate a microsome fraction. By using the microsome thus separated, the yield of […] was measured in a conventional manner and the conversion rate was calculated.

[2] = target: T1, RAR (Homo sapiens, UniProt P10276); assay: RAR reporter gene (luciferase) transfer assay in COS-1 cells; type: cell-based; details: control lot = 1
T1 construct: expressed in transfected cells; host or cells: COS-1 cells
T1 sequence (P10276 1-462): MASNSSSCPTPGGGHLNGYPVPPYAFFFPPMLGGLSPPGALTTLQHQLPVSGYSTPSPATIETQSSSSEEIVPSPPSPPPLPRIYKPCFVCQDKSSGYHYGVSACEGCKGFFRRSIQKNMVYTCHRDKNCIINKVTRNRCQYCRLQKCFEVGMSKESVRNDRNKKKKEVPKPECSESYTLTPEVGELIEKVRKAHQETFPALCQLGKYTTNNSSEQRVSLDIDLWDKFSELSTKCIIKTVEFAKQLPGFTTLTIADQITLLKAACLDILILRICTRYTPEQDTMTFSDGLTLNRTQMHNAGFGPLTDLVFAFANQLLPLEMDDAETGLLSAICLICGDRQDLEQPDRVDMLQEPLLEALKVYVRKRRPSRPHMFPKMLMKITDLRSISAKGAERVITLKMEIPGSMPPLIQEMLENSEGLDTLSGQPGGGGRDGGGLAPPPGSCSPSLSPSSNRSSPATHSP
From the text: Each value means the degree of increase in the luciferase activity, which is expressed by referring the luciferase activity in the control lot as to 1, caused by the addition of the corresponding compound.
As a substitute for a plasmid containing a luciferase gene under the regulation in expression by RXR response element (pRXRL:RXRE-SV40 luciferase), and the RXRα expression plasmid (pRXRα); a plasmid containing a luciferase gene under the regulation in expression by RXR response element (pRARL:RASE-SV40 luciferase), and a […] (pRARα) were transferred into COS-1 cells. Transfectants with these plasmids and the compound of the present invention (concentration: 10^−4 to 10^−7 M) were added to the culture.
After sucking off the medium from the Petri dish, […] of a cultured cell lysing solution (25 mM Tris phosphate buffer (pH 7.8), 2 mM 1,2-diaminocyclohexane-N, N,N′,N′-tetraacetate, 10% glycerol, 1% Triton X-100) was added and the cells were peeled off with a rubber policeman and collected. After completely disrupting the cells by freezing and melting, the cells were centrifuged at 4° C. (15,000 rpm, 2 min) and the supernatant thus obtained was employed as a sample for measurement. To 20 ml of the supernatant, 100 ml of a luciferase substrate solution (2.14 mg of Co-A, 100 ml of 470 mM D-Luciferin, 200 ml of 530 mM ATP, 2 ml of DTT-Tricine buffer (pH 7.8)) was added and the fluorescence intensity was measured with a luminometer (ATTO Luminosensor AB-2000). To measure the β-galactosidase for determining the gene transfer efficiency, using a Luminescent β-galactosidase detection kit II (Clontech), fluorescence intensity was measured by a luminometer.

[3] = system: male Wistar rats; assay: Oral administration of Compound-5 to rats: toxicity and Compound-1 in the blood; details: rat, in vivo
Procedure: Male Wistar rats (n=4) weighing about 200 g were employed and the concentration of Compound-1 contained in the serum was expressed in mean±SE (FIG. 9).
In FIG. 9, open circles show a case wherein Compound-5 was solubilized with HCO-60 and orally administered in a dose of 2 mg/kg.
Solid circles show a case wherein Compound-5 was suspended in an acacia solution and orally administered in a dose of 20 mg/kg. Per part of the serum collected with the passage of time, ethanol containing 1% of acetic acid was added and the mixture was allowed to stand in the dark at room temperature for 7 days. Then Compound-1 was determined by high performance liquid chromatography.
Open squares show a case wherein Compound-5 was suspended in an acacia solution and orally administered. Then the blood was collected at definite points and Compound-1 was determined by high performance liquid chromatography immediately thereafter. […] Separately, Compound-5 suspended in an acacia solution was orally administered to rats having been cannulated into the portal vein. Then the portal blood was collected with the passage of time and Compound-1 was determined.

[4] = system: bovine serum; assay: Reaction with serum (Schiff base formation): free compound and recovery; details: After 24 hours
Procedure: To recover such a compound in a free state from plasma, it is required to add a large amount of a water-miscible organic solvent (methanol, ethanol, acetone, acetonitrile, etc.) to the plasma, acidify the mixture (pH 3.0 or below) and then allow it to stand at room temperature for about 1 week. […] Ascochlorin, Compound-6 or Compound-14 is dissolved in a small amount of an organic solvent and added to serum.
At definite points, the serum was sampled and divided into 2 portions. Ten times as much acetonitrile was added to one of these portions and the mixture was centrifuged. Then the free compound in the serum was determined. To the other portion, 10 times as much acetonitrile containing 1% of acetic acid was added. After allowing to stand at room temperature for 1 week, the mixture was centrifuged and the free compound was determined (FIG. 10).

Molecule	7-α-Hydorxycholesterol ([1]; 5 mg/kg oral once a day)	7-α-Hydorxycholesterol (conversion rate) ([1]; 5 mg/kg oral once a day)	degree of increase in the luciferase activity, RAR vector ([2]; 10^−6 M)	toxicity when present in a free state in the blood [3]	7-α-Hydorxycholesterol ([1]; 20 mg/kg oral once a day)	7-α-Hydorxycholesterol (conversion rate) ([1]; 20 mg/kg oral once a day)	enzymatic activity and yield of colesterol-7α-hydroxylase per unit protein weight ([1]; ground liver of orally treated rats)	degree of increase in the luciferase activity, RAR vector ([2]; 5 × 10^−6 M)	free compound in serum [4]	degree of increase in the luciferase activity, RAR vector ([2]; 10^−5 M)	degree of increase in the luciferase activity, RAR vector ([2]; 4 × 10^−7 M)
3-[5-[l(R),2(S),6(S)-trimethyl-3-oxocylohexyl]-3-methyl-2,4-pentadienyl]-2,4-dihydroxy-5-chloro-6-methylbenzaldehyde [Compound-1]	3.80 nM/hr/mg protein	5.51%	30	strong toxicity							
COc1c(Cl)c(C)c(C=O)c(O)c1C/C=C(C)/C=C/[C@@]1(C)[C@H](C)CCC(=O)[C@@H]1C [Compound-6, 4-O-methylASC]					3.61 nM/hr/mg protein	5.30%	elevated dose-dependently	35	scarcely detected		
CC(/C=C/[C@@]1(C)[C@H](C)CCC(=O)[C@@H]1C)=C\Cc1c(O)c(C=O)c(C)c(Cl)c1OCC(=O)O [Compound-14, 4-O-carboxymethylASC]					4.47 nM/hr/mg protein	7.06%			scarcely detected	38	
CC(/C=C/C1(C)C(C)C=CC(=O)C1C)=C\Cc1c(O)c(Cl)c(C)c(C=O)c1O (centres unmarked) [Compound-26]	3.31 nM/hr/mg protein	4.00%		strong toxicity							33
